The values that follow come from publication PMC10455339, “Combining the Peptide RWQWRWQWR and an Ethanolic Extract of Bidens pilosa Enhances the Activity against Sensitive and Resistant Candida albicans and C. auris Strains” (Journal of Fungi, 2023).

One assay deals with C. albicans 256-PUJ-HUSI. In words: Antifungal activity (MIC/MFC), broth microdilution. Format: cell-based, Candida albicans. Particulars: FLC-resistant isolate, n = 3; for MIC: CLSI M27-A4 modified, RPMI 1640, 37 °C, 48 h, MIC = 50% growth inhibition; for MFC: subculture on SDA 24 h 37 °C, MFC = eliminates 100% of growth. How it is done: (§1) For the determination of the MICs, the guidelines of the Clinical Laboratory Standards Institute (CLSI BMD-M27-A4) were used with some modifications. Serial dilutions were made, for peptides from 6.25 to 200 µg/mL and for extracts from 31.2 to 2000 µg/mL, with RPMI 1640 medium in a 96-well microdilution plate (100 µL), and then 100 µL of the adjusted inoculum (0.5–2.5 × 10^3 cells/mL) was added and incubated at 37 °C, and visual and spectrophotometric reading (595 nm) was performed at 48 h. Controls: growth control in RPMI or DMSO, control with a known antifungal: FLC, C. albicans SC5314 (1 µg/mL), C. albicans 256 (64 µg/mL), C. auris 435 (8 µg/mL), and C. auris 537 (128 µg/mL), sterility controls correspond to RPMI medium and SS. The MIC was defined as the minimum concentration of peptide or extract that inhibited 50% of growth compared to the control. To determine the minimal fungicidal concentration (MFC), from the concentrations where no growth was observed, including the controls, a subculture was made on SDA and incubated for 24 h at 37 °C. The MFC was defined as the minimum concentration of peptide or extract that eliminated 100% of the growth compared to the control (n = 3).
Background: Dilution methods test growth across graded concentrations, often in twofold steps.

In a further assay the test system is C. auris 537-PUJ-HUSI. In words: Antifungal activity (MIC/MFC), broth microdilution. The class given is cell-based, Candida auris. Conditions: FLC- and AmB-resistant isolate, n = 3; for MIC: CLSI M27-A4 modified, RPMI 1640, 37 °C, 48 h, MIC = 50% growth inhibition; for MFC: subculture on SDA 24 h 37 °C, MFC = eliminates 100% of growth. How it is done:
as §1

A further assay deals with C. auris 435-PUJ-HUSI. The experiment in a line: Antifungal activity (MIC/MFC), broth microdilution. Particulars: FLC-sensitive isolate, n = 3; for MIC: CLSI M27-A4 modified, RPMI 1640, 37 °C, 48 h, MIC = 50% growth inhibition; for MFC: subculture on SDA 24 h 37 °C, MFC = eliminates 100% of growth. Format: cell-based, Candida auris. How it is done: as §1
The test system of the next assay is C. albicans SC5314. In words: microbe, parasite or virus in culture. The class given is cell-based, Candida albicans. Conditions: n = 3; for MIC: CLSI M27-A4 modified, RPMI 1640, 37 °C, 48 h, MIC = 50% growth inhibition; for MFC: subculture on SDA 24 h 37 °C, MFC = eliminates 100% of growth. How it is done:
as §1

The subject of a further assay is C. albicans. Conditions: cited from earlier work. An excerpt: Antifungal activity of other phenolic acids, such as chlorogenic acid, has been reported against Candida spp. resistant to FLC, generating a death process similar to apoptosis.
The mark [1] stands for this setting: Candida albicans, 256PUJHUSI, read-out: MIC.
Setting [2] is: Candida albicans, 256PUJHUSI, read-out: MFC.
Where [3] appears, read: Candidozyma auris, 537PUJHUSI, read-out: MIC.
Where [4] appears, read: Candidozyma auris, 537PUJHUSI, read-out: MFC.
The mark [5] stands for this setting: Candidozyma auris, 435PUJHUSI, read-out: MIC.
The mark [6] stands for this setting: Candidozyma auris, 435PUJHUSI, read-out: MFC.
[7] abbreviates: Candida albicans, SC5314, read-out: MIC.
[8] abbreviates: Candida albicans, SC5314, read-out: MFC.
[9] abbreviates: reported against other C. albicans strains.
Where [10] appears, read: reported against C. albicans strains.

Converted amounts (≈) assume the structure as drawn. “And” between values parts separate entries of the source, which are not always exact repeats. Equal values may be shown once. Read-outs that look alike come from different tables or passages of the source. Ends that are not written are not given here.

Usually MFC stands for the smallest concentration meeting the test's criterion for killing the fungus. `O=C(O)/C=C/c1ccc(O)c(O)c1` [Caffeic acid]: the MIC in the assay with C. albicans 256-PUJ-HUSI (setting [1]), with C. auris 537-PUJ-HUSI (setting [3]), with C. auris 435-PUJ-HUSI (setting [5]) and in the assay on C. albicans SC5314 (setting [7]) was more than 2000 µg/mL each time. For the same compound, the minimum fungicidal concentration (MFC) in the assay with C. albicans 256-PUJ-HUSI (setting [2]), in the assay on C. auris 537-PUJ-HUSI (setting [4]), in the assay with C. auris 435-PUJ-HUSI (setting [6]) and in the assay with C. albicans SC5314 (setting [8]) was more than 2000 µg/mL in each case.

`O=C(/C=C/c1ccc(O)c(O)c1)O[C@@H](C(=O)O)[C@@H](O)C(=O)O` [Caftaric acid]: the MIC with C. albicans 256-PUJ-HUSI (setting [1]), in the assay with C. auris 537-PUJ-HUSI (setting [3]), in the assay on C. auris 435-PUJ-HUSI (setting [5]) and in the assay with C. albicans SC5314 (setting [7]) was more than 1000 µg/mL in each case. For the same compound, the MFC in the assay on C. albicans 256-PUJ-HUSI (setting [2]), in the assay on C. auris 537-PUJ-HUSI (setting [4]), in the assay with C. auris 435-PUJ-HUSI (setting [6]) and with C. albicans SC5314 (setting [8]) was more than 1000 µg/mL in each case.

As for `O=C(/C=C/c1ccc(O)c(O)c1)O[C@@H]1C[C@](O)(C(=O)O)C[C@@H](O)[C@H]1O` [Chlorogenic acid], the MIC in the assay with C. albicans 256-PUJ-HUSI (setting [1]), in the assay with C. auris 537-PUJ-HUSI (setting [3]), in the assay with C. auris 435-PUJ-HUSI (setting [5]) and in the assay on C. albicans SC5314 (setting [7]) was more than 1000 µg/mL in each case. Moreover, the minimum fungicidal concentration (MFC) in the assay with C. albicans 256-PUJ-HUSI (setting [2]), with C. auris 537-PUJ-HUSI (setting [4]), in the assay on C. auris 435-PUJ-HUSI (setting [6]) and in the assay on C. albicans SC5314 (setting [8]) was more than 1000 µg/mL each time.

Turning to `O=C(O)c1cc(O)c(O)c(O)c1` [Gallic acid], the MIC in the assay on C. albicans 256-PUJ-HUSI (setting [1]) is 62.5 µg/mL (≈ 0.367 mM); in the assay on C. auris 537-PUJ-HUSI (setting [3]), 62.5 µg/mL (≈ 0.367 mM); in the assay with C. auris 435-PUJ-HUSI (setting [5]) it was 125 µg/mL (≈ 0.735 mM); in the assay with C. albicans SC5314 (setting [7]), 125 µg/mL (≈ 0.735 mM). Further, the MFC in the assay on C. albicans 256-PUJ-HUSI (setting [2]) is 125 µg/mL (≈ 0.735 mM); with C. auris 537-PUJ-HUSI (setting [4]), 1000 µg/mL (≈ 5.88 mM); in the assay with C. auris 435-PUJ-HUSI (setting [6]), 1000 µg/mL (≈ 5.88 mM); in the assay with C. albicans SC5314 (setting [8]), 250 µg/mL (≈ 1.47 mM).

With `C[C@@H]1O[C@@H](OC[C@H]2O[C@@H](Oc3c(-c4ccc(O)c(O)c4)oc4cc(O)cc(O)c4c3=O)[C@H](O)[C@@H](O)[C@@H]2O)[C@H](O)[C@H](O)[C@H]1O` [Rutin], the MIC in the assay with C. albicans 256-PUJ-HUSI (setting [1]), in the assay with C. auris 537-PUJ-HUSI (setting [3]), in the assay on C. auris 435-PUJ-HUSI (setting [5]) and in the assay on C. albicans SC5314 (setting [7]) was more than 2000 µg/mL each time. Further, the MFC with C. albicans 256-PUJ-HUSI (setting [2]), with C. auris 537-PUJ-HUSI (setting [4]), in the assay with C. auris 435-PUJ-HUSI (setting [6]) and in the assay on C. albicans SC5314 (setting [8]) was more than 2000 µg/mL throughout. In addition, the Reported active concentration in the assay with C. albicans is 1000 µg/mL.

On to “FKCRRWQWRM [Peptide 2, short peptide derived from LfcinB, …]”, for which the MIC in the assay on C. albicans (setting [9]) was 17.3 to 17.5 µM.

In the case of “FKCRRWQWRMKKLGA [LfcinB-20, short peptide derived from LfcinB, printed …]”, in the assay with C. albicans (setting [10]), the MIC was 8 µg/mL.

As to “FKCRRWQWRMKKLGA [bLF (or LFB) 17–30, short peptide derived from LfcinB, …]”, the MIC in the assay on C. albicans (setting [9]) was 5 to 10 µM.

As to “GAPSITCVRRAF [Peptide 3, short peptide derived from LfcinB, …]”, in the assay on C. albicans (setting [9]), the MIC is 635 µM.

As for “Lfcin B-18-42: short peptide derived from LfcinB (FKCRRWQWRMKKLGAPSITCVRRAF; ends and bridges not checked; cysteine pairing not given here; UniProt P24627 36-60, looked up, fragment)”, the MIC in the assay on C. albicans (setting [10]) was 100 µg/mL.

For the compound “LfcinB: Bovine lactoferricin, AMP derived from bovine lactoferrin (FKCRRWQWRMKKLGAPSITCVRRAF; ends and bridges not checked; cysteine pairing not given here; UniProt P24627 36-60, looked up)”, the MIC with C. albicans (setting [10]) was 0.8 to 400 µg/mL.

Consider “RRWQWRMKK [Lfcin B-9, short peptide derived from LfcinB, …]”, for which, in the assay with C. albicans (setting [10]), the MIC is recorded as 25,000–32,000 μg/mL.

Take “RWQWHomoFQWR [[^5HomoF]-R-1-R, RWQWHomoFQWR, position 5 replaced by Homophenylalanine]”: the MIC in the assay on C. albicans 256-PUJ-HUSI is 200 μg/mL and 134 μM; in the assay on C. auris 537-PUJ-HUSI it was > 200 μg/mL and > 134 μM; against C. auris 435-PUJ-HUSI it was > 200 μg/mL and > 134 μM; against C. albicans SC5314, 200 μg/mL and 134 μM. For the same compound, the MFC in the assay with C. albicans 256-PUJ-HUSI is > 200 μg/mL and > 134 μM; against C. auris 537-PUJ-HUSI, > 200 μg/mL and > 134 μM; against C. auris 435-PUJ-HUSI, > 200 μg/mL and > 134 μM; in the assay with C. albicans SC5314 it was > 200 μg/mL and > 134 μM.

Consider “RWQWNalQWR [[^5Nal]-R-1-R, RWQWNalQWR, position 5 replaced by Naphthylalanine]”, for which, in the assay on C. auris 435-PUJ-HUSI, the MIC was > 200 μg/mL and > 131 μM; the minimal fungicidal concentration (MFC) is > 200 μg/mL and > 131 μM. In addition, in the assay on C. albicans SC5314, the MIC is > 200 μg/mL and > 131 μM; the minimal fungicidal concentration (MFC) is > 200 μg/mL and > 131 μM.

Turning to “RWQWRM [Peptide 5, short peptide derived from LfcinB, RWQWRM]”, in the assay with C. albicans (setting [9]), the MIC is 500 µM.
